Experimental findings from US11078202B2, “β-lactamase inhibitor and use thereof” (priority 2018, dated 2021) are described below.

Format in all cases: cell-based
The subject of assay [1] is Klebsiella pneumoniae XNWB 0005. Description: MIC assay of test compounds combined with ceftazidime (8 μg/mL). As to conditions: ceftazidime 8 μg/mL fixed. In short, it runs like this:
(§1)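 We recorded each combination MIC according to CLSI after culturing plates at 35±2 °C for 16-20 h. The inoculum consisted of colonies suspended in 0.9% NaCl (OD600 0.1-0.15) and diluted 300-fold with 1.1×CAMHB, mixed with compound dilutions and the partner β-lactam.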

The subject of assay [2] is Klebsiella pneumoniae XNWB 0003. The assay is described as above. As to conditions: ceftazidime 8 μg/mL fixed. In short, it runs like this: as §1
Assay [3] has as its system Klebsiella pneumoniae XNWB 0006. Described as above. The following applies: ceftazidime 8 μg/mL fixed. In short, it runs like this:
as §1

Assay [4] has as its system Klebsiella pneumoniae XNWB 0002. The assay is described as above. As to conditions: ceftazidime 8 μg/mL fixed. In short, it runs like this: as §1
Assay [5] concerns Klebsiella pneumoniae XNWB 0001. The description is as above. The following applies: ceftazidime 8 μg/mL fixed. In short, it runs like this: as §1
For assay [6], the system named is Acinetobacter baumannii XNWB 0007. The description is as above. As to conditions: ceftazidime 8 μg/mL fixed. In short, it runs like this: as §1
Assay [7] relates to Pseudomonas aeruginosa XNWB 0008. The description is as above. As to conditions: ceftazidime 8 μg/mL fixed. The essentials: as §1
The test system of assay [8] is Klebsiella pneumoniae XNWB 0004. The assay is described as above. As to conditions: ceftazidime 8 μg/mL fixed. The essentials: as §1
Assay [9] has as its system Enterobacter aerogenes XNWB 0011. Put plainly: MIC assay of test compounds combined with ampicillin (8 μg/mL). The following applies: ampicillin 8 μg/mL fixed. The protocol: (§2) The bacterial strains used for the minimum inhibitory concentration (MIC) test were frozen in a −80° C. ULT freezer and thawed 2 days before use. A small amount of frozen bacterial strains were scraped using a sterile inoculating loop, streaked onto a TSA solid culture dish for inoculation, and then cultured for 20-24 h at 35±2° C. in a normal atmospheric environment.
(§3) 5-10 colonies with similar morphology were picked from the culture dish using a sterile inoculating loop and then re-streaked onto a suitable solid culture dish. Then the dish was placed into a normal incubator for culture for 20-24 h at 35±2° C.
(§4) 5-10 single bacterial colonies were picked from the solid culture dish, resuspended in 500 μL of 0.9% NaCl, and adjusted to an OD600 of 0.1-0.15 with a spectrophotometer.
(§5) The bacteria were then diluted 300-fold with 1.1×CAMHB.
(§6) Test compounds of columns A-H: having a highest final test concentration of 64 μg/mL or 32 μg/mL, 2-fold diluted.
(§7) Dilution of test compounds: All test compounds were dissolved and diluted in dimethylsulfoxide (DMSO). 170 μL of 3.2 mg/mL (50*64 μg/mL) compound was transferred to wells (A1-H1) of column 1 of a dilution master plate and then 85 μL of DMSO was transferred to wells of other columns. Each compound was diluted 2-fold in sequence (i.e., 85 μL of compound was pipetted from column 1 into column 2 and mixed uniformly, 85 μL of compound was pipetted from column 2 into column 3 and mixed uniformly, then 85 μL of compound was pipetted from column 3 into column 4 and mixed uniformly, and so on until the dilution was done in column 11).
(§8) Preparation of an additive of ampicillin: Ampicillin was dissolved in ddH2O. 30 μL of 100 μg/mL (12.5×8 μg/mL) ampicillin was transferred to columns 1-11 of an additive plate, followed by the addition of 30 μL of ddH2O to column 12.
(§9) 2 μL of each compound in the dilution master plate of the test compounds was transferred to the corresponding well of the assay plates. In the mean time, 2 μL of 100% DMSO was transferred to the compound-free wells (GC and SC wells). (1) 8 μL of imipenem in the additive plate of imipenem was transferred to the corresponding wells of the assay plates; (2) 8 μL of ceftazidime in the additive plate of ceftazidime was transferred to the corresponding wells of the assay plates; (3) 8 μL of ampicillin in the additive plate of ampicillin was transferred to the corresponding wells of the assay plates.
(§10) 90 μL of corresponding bacterial inocula were added to wells (except for SC wells) of the assay plates.
(§11) After addition, the 6 assay plates were covered by sterile covers. The mixtures in the assay plates were centrifuged by a centrifuge at 1000 rpm for 30 s, and mixed uniformly by oscillating with a microplate oscillator at 800 rpm for 1 min, and then cultured in a common incubator for 16-20 h at 35±2° C.
(§12) The minimum inhibitory concentration of each compound was recorded by reference to guidelines from the Clinical and Laboratory Standards Institute.
(§13) The minimum inhibitory concentrations of the compounds of the present invention and antibiotics (imipenem, ceftazidime, and ampicillin) against 11 strains of bacteria were tested in this study by reference to the medium microdilution method as indicated by the Clinical and Laboratory Standards Institute. The effect of the test compounds in combination with imipenem, ceftazidime, and ampicillin was also tested. Compounds were diluted two-fold in 96-well plates from the highest detection concentration of 64 μg/mL. The test compounds were tested in combination with a fixed concentration of imipenem (4 μg/mL), ceftazidime (8 μg/mL), and ampicillin (8 μg/mL). The bacterial inocula in the assay plates were resuscitated from TSA and diluted in CAMHB, while growth controls (GC wells) and sterile controls (SC wells) were set up in the assay plates. […]

Assay [10] concerns Escherichia coli XNWB 0010. Described as above. As to conditions: ampicillin 8 μg/mL fixed. The protocol: as §2, §3, §4, §5, §6, §7, §8, §9, §10, §11, §12, §13
Assay [11] concerns Escherichia coli XNWB 0009. The assay is described as above. As to conditions: ampicillin 8 μg/mL fixed. Here is the method: as §2, §3, §4, §5, §6, §7, §8, §9, §10, §11, §12, §13
Assay [12] deals with Klebsiella pneumoniae XNWB 0005. Description: MIC assay of test compounds combined with imipenem (4 μg/mL). As to conditions: imipenem 4 μg/mL fixed. In short, it runs like this: as §1
Assay [13] has as its system Klebsiella pneumoniae XNWB 0003. Described as above. The following applies: imipenem 4 μg/mL fixed. In short, it runs like this:
as §1

Assay [14] concerns Klebsiella pneumoniae XNWB 0006. The description is as above. The following applies: imipenem 4 μg/mL fixed. In short, it runs like this:
as §1

In assay [15] the test system is Klebsiella pneumoniae XNWB 0002. Described as above. As to conditions: imipenem 4 μg/mL fixed. In short, it runs like this: as §1
The subject of assay [16] is Klebsiella pneumoniae XNWB 0001. The assay is described as above. The following applies: imipenem 4 μg/mL fixed. The essentials:
as §1

Assay [17] has as its system Acinetobacter baumannii XNWB 0007. The assay is described as above. As to conditions: imipenem 4 μg/mL fixed. The essentials: as §1
For assay [18], the system named is Pseudomonas aeruginosa XNWB 0008. The assay is described as above. As to conditions: imipenem 4 μg/mL fixed. The essentials:
as §1

Assay [19] concerns Klebsiella pneumoniae XNWB 0004. Described as above. As to conditions: imipenem 4 μg/mL fixed. In short, it runs like this: as §1

Counter-ions that a name gives are not always drawn.

Regarding `N=C(N)NCc1nnc([C@@H]2CC3(CC3)[C@@H]3CN2C(=O)N3OS(=O)(=O)O)o1` [Example 3, (1R,4S)-4-(5-(guanidinomethyl)-1,3,4-oxadiazol-2-yl)-6-oxo-5,7-diazaspiro[bicycle [3.2.1]octane-2,1′-cyclopropan]-7-yl sulfate], the “The minimum concentration of test compounds combined with ceftazidime (8 μg/mL) for bacteriostasis” value in assay [1] is on record as “B (B: 8-16 μg/mL)”; in [2], “B (B: 8-16 μg/mL)”; in [3], “A (A: <8 μg/mL)”; in [4], “A (A: <8 μg/mL)”; in assay [5], “B (B: 8-16 μg/mL)”; in assay [6], “C (C: 16-128 μg/mL)”. In addition, the figures for the “The minimum concentration of test compounds combined with ceftazidime (8 μg/mL) for bacteriostasis” value in assay [7] and in assay [8] were “C (C: 16-128 μg/mL)” and “B (B: 8-16 μg/mL)”, respectively. The “The minimum concentration of test compounds combined with ampicillin (8 μg/mL) for bacteriostasis” value is “C (C: 16-128 μg/mL)” in [9], “B (B: 8-16 μg/mL)” in [10] and “A (A: <8 μg/mL)” in assay [11]. Moreover, the “The minimum concentration of test compounds combined with imipenem (4 μg/mL) for bacteriostasis” value was “A (A: <8 μg/mL)” in [12]; “A (A: <8 μg/mL)” in [13]; “A (A: <8 μg/mL)” in [14]; “A (A: <8 μg/mL)” in [15]; “B (B: 8-16 μg/mL)” in [16]; “C (C: 16-128 μg/mL)” in [17]. Moreover, the “The minimum concentration of test compounds combined with imipenem (4 μg/mL) for bacteriostasis” value is listed as “C (C: 16-128 μg/mL)” in assay [18] and “A (A: <8 μg/mL)” in assay [19].
For `O=C1N2C[C@H](N1OS(=O)(=O)O)C1(CC1)C[C@H]2c1cc(C2CCNC2)on1` (stereo partly drawn) [Example 45, (1R,4S)-6-oxo-4-(5-(pyrrolidin-3-yl)isoxazol-3-yl)-5,7-diazaspiro[bicyclo[3.2.1]octane-2,1′-cyclopropan]-7-yl sulfate], the “The minimum concentration of test compounds combined with ceftazidime (8 μg/mL) for bacteriostasis” value in assay [1] is “A (A: <8 μg/mL)”; in assay [2], “A (A: <8 μg/mL)”; in assay [3], “A (A: <8 μg/mL)”; in assay [4] it was “A (A: <8 μg/mL)”; in [5], “A (A: <8 μg/mL)”; in assay [6], “C (C: 16-128 μg/mL)”. Further, the “The minimum concentration of test compounds combined with ceftazidime (8 μg/mL) for bacteriostasis” value in assay [7] and in [8] was “B (B: 8-16 μg/mL)” each time. For the same molecule, the “The minimum concentration of test compounds combined with ampicillin (8 μg/mL) for bacteriostasis” value in assay [9], in [10] and in assay [11] was “A (A: <8 μg/mL)” in each case. The “The minimum concentration of test compounds combined with imipenem (4 μg/mL) for bacteriostasis” value in assay [12] is listed as “A (A: <8 μg/mL)”; in assay [13], “A (A: <8 μg/mL)”; in [14], “A (A: <8 μg/mL)”; in [15], “A (A: <8 μg/mL)”; in [16], “A (A: <8 μg/mL)”; in assay [17], “C (C: 16-128 μg/mL)”. The “The minimum concentration of test compounds combined with imipenem (4 μg/mL) for bacteriostasis” value in assay [18] and in assay [19] was “A (A: <8 μg/mL)” throughout.
`NCCc1cc([C@@H]2CC3(CC3)[C@@H]3CN2C(=O)N3OS(=O)(=O)O)no1` [Example 41, (1R,4S)-4-(5-(2-aminoethyl)isoxazol-3-yl)-6-oxo-5,7-diazaspiro[bicyclo[3.2.1]octane-2,1′-cyclopropan]-7-yl sulfate]: the “The minimum concentration of test compounds combined with ceftazidime (8 μg/mL) for bacteriostasis” value is listed as “A (A: <8 μg/mL)” in assay [1]; “A (A: <8 μg/mL)” in assay [2]; “A (A: <8 μg/mL)” in assay [3]; “A (A: <8 μg/mL)” in assay [4]; “A (A: <8 μg/mL)” in assay [5]; “C (C: 16-128 μg/mL)” in assay [6]. Also, the “The minimum concentration of test compounds combined with ceftazidime (8 μg/mL) for bacteriostasis” value in assay [7] is on record as “C (C: 16-128 μg/mL)”; in assay [8], “B (B: 8-16 μg/mL)”. The “The minimum concentration of test compounds combined with ampicillin (8 μg/mL) for bacteriostasis” value is “B (B: 8-16 μg/mL)” in assay [9], “A (A: <8 μg/mL)” in assay [10] and “A (A: <8 μg/mL)” in assay [11]. Also, the “The minimum concentration of test compounds combined with imipenem (4 μg/mL) for bacteriostasis” value is given as “A (A: <8 μg/mL)” in [12]; “A (A: <8 μg/mL)” in assay [13]; “A (A: <8 μg/mL)” in assay [14]; “A (A: <8 μg/mL)” in assay [15]; “A (A: <8 μg/mL)” in assay [16]; “C (C: 16-128 μg/mL)” in assay [17]. In addition, the “The minimum concentration of test compounds combined with imipenem (4 μg/mL) for bacteriostasis” value in [18] and in assay [19] was “A (A: <8 μg/mL)” each time.
